Test results as given in the supplement of paper PMC10307832.

Assays:
Test in all cases: relative viability (nuclei count vs DMSO), 5 days (fraction); higher = more cells survive
KIN001-266 + Pictilisib = compound: CCN1CCC(CC1)N2C=C(N=N2)CNC3=CC4=C(C(=CN=C4C(=C3)Cl)C#N)NC5=CC(=C(C=C5)F)Cl [KIN001-266] + CS(=O)(=O)N1CCN(Cc2cc3nc(-c4cccc5[nH]ncc45)nc(N4CCOCC4)c3s2)CC1 [Pictilisib] (partner 1 µM)
In short: (§1)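 Lung cancer cell lines were pin-tool dosed in 1536-well plates on the day after seeding, with either a lone drug or a fixed anchor-drug dose plus five library-drug doses (not always all listed) in √10 steps. Nuclei were counted on 4× images after 5 days. Relative viability is the ratio of treated-well to vehicle-well nuclei counts, with each value a median of duplicate plates.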

KIN001-266 + Crizotinib = compound: CCN1CCC(CC1)N2C=C(N=N2)CNC3=CC4=C(C(=CN=C4C(=C3)Cl)C#N)NC5=CC(=C(C=C5)F)Cl [KIN001-266] + C[C@@H](Oc1cc(-c2cnn(C3CCNCC3)c2)cnc1N)c1c(Cl)ccc(F)c1Cl [Crizotinib] (partner 1 µM)
In short: as §1

KIN001-266 + Dasatinib = compound: CCN1CCC(CC1)N2C=C(N=N2)CNC3=CC4=C(C(=CN=C4C(=C3)Cl)C#N)NC5=CC(=C(C=C5)F)Cl [KIN001-266] + Cc1nc(Nc2ncc(C(=O)Nc3c(C)cccc3Cl)s2)cc(N2CCN(CCO)CC2)n1 [Dasatinib] (partner 0.075 µM)
In short: as §1

KIN001-266 + Vorinostat = compound: CCN1CCC(CC1)N2C=C(N=N2)CNC3=CC4=C(C(=CN=C4C(=C3)Cl)C#N)NC5=CC(=C(C=C5)F)Cl [KIN001-266] + O=C(CCCCCCC(=O)Nc1ccccc1)NO [Vorinostat] (partner 1 µM)
In short: as §1

Row | Cell Line | relative viability (KIN001-266 + Pictilisib; first compound 0.08 µM) | relative viability (KIN001-266 + Pictilisib; first compound 0.253 µM) | relative viability (KIN001-266 + Pictilisib; first compound 0.8 µM) | relative viability (KIN001-266 + Pictilisib; first compound 2.53 µM) | relative viability (KIN001-266 + Pictilisib; first compound 8 µM) | relative viability (KIN001-266 + Crizotinib; first compound 0.08 µM) | relative viability (KIN001-266 + Crizotinib; first compound 0.253 µM) | relative viability (KIN001-266 + Crizotinib; first compound 0.8 µM) | relative viability (KIN001-266 + Crizotinib; first compound 2.53 µM) | relative viability (KIN001-266 + Crizotinib; first compound 8 µM) | relative viability (KIN001-266 + Dasatinib; first compound 0.08 µM) | relative viability (KIN001-266 + Dasatinib; first compound 0.253 µM) | relative viability (KIN001-266 + Dasatinib; first compound 0.8 µM) | relative viability (KIN001-266 + Dasatinib; first compound 2.53 µM) | relative viability (KIN001-266 + Dasatinib; first compound 8 µM) | relative viability (KIN001-266 + Vorinostat; first compound 0.08 µM) | relative viability (KIN001-266 + Vorinostat; first compound 0.253 µM) | relative viability (KIN001-266 + Vorinostat; first compound 0.8 µM) | relative viability (KIN001-266 + Vorinostat; first compound 2.53 µM) | relative viability (KIN001-266 + Vorinostat; first compound 8 µM)
1 | 201T | 0.768 | 0.746 | 0.662 | 0.64 | 0.721 | 1.05 | 0.997 | 1.02 | 1.03 | 1.03 | 0.62 | 0.513 | 0.545 | 0.606 | 0.589 | 1.02 | 0.969 | 0.876 | 0.988 | 0.934
2 | A549 | 0.584 | 0.527 | 0.519 | 0.584 | 0.393 | 0.771 | 0.733 | 0.83 | 0.739 | 0.693 | – | – | – | – | – | – | – | – | – | –
3 | A-427 | 0.778 | 0.735 | 0.582 | 0.72 | 0.754 | 0.905 | 0.701 | 0.776 | 0.746 | 0.636 | 0.742 | 0.614 | 0.661 | 0.686 | 0.575 | 0.885 | 0.88 | 0.883 | 0.82 | 0.856
4 | ABC-1 | 0.864 | 0.927 | 0.926 | 0.65 | 0.547 | 1.29 | 1.31 | 1.26 | 1.04 | 0.435 | 0.521 | 0.632 | 0.652 | 0.489 | 0.399 | 1.36 | 1.24 | 1.26 | 1.09 | 0.987
5 | BEN | 0.632 | 0.615 | 0.589 | 0.54 | 0.632 | 0.756 | 0.815 | 0.948 | 0.811 | 1.04 | 0.296 | 0.362 | 0.292 | 0.274 | 0.345 | 0.607 | 0.531 | 0.601 | 0.559 | 0.635
6 | CAL-12T | 0.698 | 0.539 | – | 0.31 | 0.47 | 0.562 | 0.565 | 0.693 | 0.589 | 0.686 | 0.444 | 0.49 | 0.345 | 0.52 | 0.278 | 0.728 | 0.662 | 0.903 | 0.73 | 0.895
7 | COR-L23 | 0.88 | 0.749 | 0.697 | 0.649 | 0.478 | 0.751 | 0.832 | 0.642 | 0.561 | 0.416 | 0.523 | 0.495 | 0.476 | 0.484 | 0.372 | 0.397 | 0.46 | 0.62 | 0.422 | 0.237
8 | COR-L 105 | 0.422 | 0.44 | 0.352 | 0.452 | 0.43 | 0.817 | 0.962 | 0.82 | 0.969 | 0.726 | 0.373 | 0.419 | 0.343 | 0.377 | 0.326 | 0.796 | 1.07 | 0.899 | 0.594 | 0.814
9 | Calu-6 | 0.933 | 0.9 | 1.08 | 0.805 | 0.765 | 0.768 | 0.763 | 0.825 | 0.81 | 0.595 | – | – | – | – | – | – | – | – | – | –
